Experimental data taken from patent US5840927A, “Sesquiterpene compounds” (Toa Gosei Co., Ltd., priority 1995, dated 1998).
Converted amounts (≈) assume the structure as drawn.

Experiments:
[1] = system: Aspergillus niger TIMM0113; assay: MIC assay of anti-fungal activity in vitro, Aspergillus niger TIMM0113; format: cell-based; settings: 96 h, A. niger TIMM0113, Yeast Morphology Ager, serial double dilution, 30° C., 4 days
Experimental: (§1) In the following, examples of anti-fungal assays are described.
(§2) In the assay standard microbial strains supplied from Research Center for Eumyceta and Mycosis, Teikyo University, Japan, were used as the test fungi, and Yeast Morphology Ager (DIFCO) was used as the medium for the drug sensitivity assays.
(§3) Firstly, the given fungus was smeared on the potato-dextrose agar media (Nissui Seiyaku) slants, incubated at 30° C. for 1 day (for Candida albicans and Cryptococcus neoformans) or for 4 days (for Aspergillus nigar and Aspergillus fumigatus), and then the fungus grown on the slant was washed out with a sterilized physiological salt solution containing 0.1% Tween 80. The washed out fungus was passed through a filter with 15 μm bores, and, after the number of fungus colonies were counted on the blood cell counting plate, a suspension containing 10^5 CFU/ml of fungus was prepared to be used as the inoculation solution. After this solution (0.02 ml) was inoculated to Yeast Morphology Ager containing a drug at concentrations in a serial double dilution, it was cultured at 30° C. for either 1 day or 4 days.
(§4) MIC assay of cryptoporic acid H was carried out by the similar procedure as described above.

[2] = system: Candida albicans TIMM1623; assay: MIC assay of anti-fungal activity in vitro, Candida albicans TIMM1623; format: cell-based; settings: 24 h, C. albicans TIMM1623, Yeast Morphology Ager, serial double dilution, 30° C., 1 day
Experimental: as §1, §2, §3, §4

[3] = system: Aspergillus fumigatus TIMM0063; assay: MIC assay of anti-fungal activity in vitro, Aspergillus fumigatus TIMM0063; format: cell-based; settings: 96 h, A. fumigatus TIMM0063, Yeast Morphology Ager, serial double dilution, 30° C., 4 days
Experimental: as §1, §2, §3, §4

[4] = system: Saccharomyces cerevisiae JCM2216; assay: MIC assay, Saccharomyces cerevisiae JCM2216; format: cell-based; settings: similar procedure as described above
[5] = Solubility; format: physicochemical
[6] = system: Candida albicans, Cryptococcus neoformans, Aspergillus nigar and Aspergillus fumigatus; assay: anti-microbial activity in vitro against test fungi (overall statement); format: cell-based; settings: stated in words
Experimental: as §1, §2, §3

[7] = system: C. neoformans TIMM0354; assay: MIC assay of anti-fungal activity in vitro, Cryptococcus neoformans TIMM0354; format: cell-based; settings: 24 h, Yeast Morphology Ager, serial double dilution, 30° C., 1 day
Experimental: as §1, §2, §3

[8] = in methanol, acetone, and ethyl acetate

Row | Structure (SMILES) | MIC [1] | MIC [2] | MIC [3] | MIC [4] | Solubility ([5]; in chloroform) | Solubility [5, 8] | Solubility ([5]; in water) | MIC [7] | anti-fungal activities [6]
1 | C=C1CC[C@H]2C(C)(C)CCC[C@]2(C)[C@H]1COC(C(=O)O)C(CC(=O)O)C(=O)O (some centres unmarked) [Cryptoporic acid H, cryptoporic acid H] | 200 µg/mL (≈ 504 µM) | 200 µg/mL (≈ 504 µM) | 200 µg/mL (≈ 504 µM) | 200 µg/mL (≈ 504 µM) | – | – | – | – | –
2 | C=C1CC[C@H]2C(C)(C)CCC[C@]2(C)[C@H]1COC(C(=O)OC)C(CC(=O)O)C(=O)O[C@H]1CC(C)(C)[C@@H]2CC=C(C=O)[C@H](C=O)[C@@]2(C)C1 (some centres unmarked) [TG101] | 50 µg/mL (≈ 77.8 µM) | 100 µg/mL (≈ 156 µM) | 50 µg/mL (≈ 77.8 µM) | – | soluble | readily soluble | slightly soluble | 50 µg/mL (≈ 77.8 µM) | confirming their anti-fungal activities
3 | C=C1CC[C@H]2C(C)(C)CCC[C@]2(C)[C@H]1COC(C(=O)O[C@H]1CC(C)(C)[C@@H]2CC=C(C=O)[C@H](C=O)[C@@]2(C)C1)C(CC(=O)O)C(=O)OC (some centres unmarked) [TG102] | – | – | – | – | soluble | readily soluble | slightly soluble | – | –

The next lines start with results.

Row | MIC [1] | MIC [2] | MIC [3] | MIC [4] | Solubility ([5]; in chloroform) | Solubility [5, 8] | Solubility ([5]; in water) | MIC [7] | Structure (SMILES) | anti-fungal activities [6]
4 | 100 µg/mL (≈ 155 µM) | 100 µg/mL (≈ 155 µM) | 25 µg/mL (≈ 38.8 µM) | – | soluble | readily soluble | slightly soluble | 50 µg/mL (≈ 77.5 µM) | C=C1CC[C@H]2C(C)(C)CCC[C@]2(C)[C@H]1COC(C(=O)OC)C(CC(=O)O)C(=O)O[C@H]1CC(C)(C)[C@@H]2CC=C3COC(O)[C@@H]3[C@@]2(C)C1 (some centres unmarked) [TG103] | confirming their anti-fungal activities
5 | – | – | – | – | soluble | readily soluble | slightly soluble | – | C=C1CC[C@H]2C(C)(C)CCC[C@]2(C)[C@H]1COC(C(=O)O[C@H]1CC(C)(C)[C@@H]2CC=C3COC(O)[C@@H]3[C@@]2(C)C1)C(CC(=O)O)C(=O)OC (some centres unmarked) [TG104] | –
